How the values were obtained:
[1] = tested on: patients with unresectable HCC; experiment: Open-label phase 3 study, safety and side-effect profile (CTCAE v4.0)
Source text: (§3) Randomization was stratified according to region (Asia-Pacific or Western regions), macroscopic portal vein invasion and/or extrahepatic spread (yes or no), Eastern Cooperative Oncology Group performance status (0 or 1), and body weight (<60 kg or ≥60 kg).
(§4) Safety assessments included recording of vital signs, hematologic and biochemical laboratory testing, urinalysis, and electrocardiography.

[2] = Dissociation constant; assay type: physicochemical; details: 25° C.
[3] = tested on: unresectable hepatocellular carcinoma (HCC); experiment: REFLECT study, efficacy per independent review; assay type: in vivo, human
Procedure: The efficacy of LENVIMA was evaluated in a randomized, open-label, multicenter, international study (REFLECT; […]) conducted in patients with previously untreated unresectable hepatocellular carcinoma (HCC).

[4] = Solubility; assay type: physicochemical
[5] = Partition coefficient; assay type: physicochemical; details: read-out: partition coefficient (log P value)
[6] = tested on: HCC; details: cited from earlier work
[7] = tested on: patients with unresectable HCC; details: human, in vivo
Source text: as §3, §4

[8] = tested on: patients with unresectable HCC; experiment: Quality of life, EORTC QLQ-C30 and QLQ-HCC18 questionnaires; assay type: in vivo, human; details: role functioning, pain, diarrhea (QLQ-C30); nutrition, body image (QLQ-HCC18)
Procedure: (§1) The primary endpoint was overall survival.
(§2) Tumors were evaluated in accordance with mRECIST (Lencioni R., Semin Liver Dis., 30(1):52-60, 2010); RECIST 1.1 was applied for nonhepatic lesions (Eisenhauer, Eur J Cancer, 45(2):228-47, 2009). The liver was examined with computed tomography or magnetic resonance imaging was performed using a triphasic scanning technique. Assessments were performed every 8 weeks until disease progression. Quality of life questionnaires were administered at baseline, on day 1 of each subsequent treatment cycle, and at the off-treatment visit.

[9] = tested on: unresectable HCC; experiment: Open-label phase 3 noninferiority study, efficacy (tumor assessment by mRECIST); assay type: in vivo, human
Source text: as §1
Patients who were eligible for enrollment had unresectable HCC with diagnosis confirmed histologically or cytologically or with diagnosis confirmed clinically in accordance with the American Association for the Study of Liver Diseases criteria. Included patients also had ≥1 measureable target lesion, based on modified Response Evaluation Criteria in Solid Tumors (Lencioni 2010); Barcelona Clinic Liver Cancer stage B or C categorization (Bruix Hepatology 2011); Child-Pugh class A; and Eastern Cooperative Oncology Group performance status ≤1. All eligible patients had controlled blood pressure (≤150/90 mm Hg), and adequate organ function. Patients with ≥50% liver occupation, clear bile duct invasion, or portal vein invasion at the main portal vein were excluded. Patients also were excluded if that had received prior systemic therapy for HCC.
as §2
The primary endpoint of overall survival was first tested for noninferiority then for superiority. The required number of events for the primary analysis was 700 deaths, based on the fill analysis set. The HR and its 95% confidence interval (CI) were estimated from a Cox proportional hazard model with treatment group as a factor and with the analysis stratified according to the same factors applied for randomization.
A fixed-sequence procedure was followed to control the overall type I error rate of analyses for both the primary and secondary efficacy endpoints at α=0.05 (2-sided). After noninferiority was declared, secondary efficacy endpoints were tested. Differences in progression-free survival and time to progression were evaluated using a stratified log-rank test with randomization stratification factors, with the associated HR and its 95% CI. A difference in the objective response rate was evaluated using the Cochran-Mantel-Haenszel chi-square test with randomized stratification factors as strata, with associated odds ratio and its 95% CI. To assess futility, 2 interim analyses (at 30% and 70% of the target number of events) were performed using Bayesian predictive probability in a noninferiority design by the independent data monitoring committee.

COc1cc2nccc(Oc3ccc(NC(=O)NC4CC4)c(Cl)c3)c2cc1C(N)=O [LENVIMA, 4-[3-chloro-4-(N′-cyclopropylureido)phenoxy]-7-methoxyquinoline-6-carboxamide methanesulfonate]
adverse reactions leading to dose reduction or interruption ([1]; in vivo): about 62%
discontinuation due to fatigue ([1]; in vivo): 1%
discontinuation due to hepatic encephalopathy ([1]; in vivo): 1%
discontinuation due to hepatic failure ([1]; in vivo): 1%
discontinuation due to hyperbilirubinemia ([1]; in vivo): 1%
dose reduction or interruption due to decreased appetite ([1]; in vivo): 8%
dose reduction or interruption due to diarrhea ([1]; in vivo): 8%
dose reduction or interruption due to fatigue ([1]; in vivo): 9%
dose reduction or interruption due to hypertension ([1]; in vivo): 6%
dose reduction or interruption due to palmar-plantar erythrodysesthesia syndrome ([1]; in vivo): 5%
dose reduction or interruption due to proteinuria ([1]; in vivo): 7%
serious adverse reaction: ascites ([1]; in vivo): 3%
serious adverse reaction: decreased appetite ([1]; in vivo): 2%
serious adverse reaction: hepatic encephalopathy ([1]; in vivo): 4%
serious adverse reaction: hepatic failure ([1]; in vivo): 3%
treatment discontinuation due to adverse reactions ([1]; in vivo): 20%
pKa [2]: 5.05
Median PFS ([3]; RECIST 1.1, independent review): 7.3 months
Objective response rate ([3]; RECIST 1.1, independent review): 19%
PFS Number of Events ([3]; RECIST 1.1, independent review): 307
PFS Number of Events (%) ([3]; RECIST 1.1, independent review): (64) %
Number of deaths ([3]; in vivo): 351
Number of deaths (%) ([3]; in vivo): (73) %
Objective response rate ([3]; mRECIST, independent review): 41%
PFS Number of Events ([3]; mRECIST, independent review): 311
PFS Number of Events (%) ([3]; mRECIST, independent review): (65) %
solubility in ethanol (dehydrated) [4]: practically insoluble
solubility in water [4]: slightly soluble
logP [5]: 3.3

CNC(=O)c1cc(Oc2ccc(NC(=O)Nc3ccc(Cl)c(C(F)(F)F)c3)cc2)ccn1 [Sorafenib]
Median overall survival ([6]; first-line treatment for HCC): 10.7 months
median improvement in overall survival compared with placebo ([6]; in vivo): 2.8 months
response rate ([6]; in vivo): 2%
treatment-related fatal adverse events included ([1]; 1 event per patient): tumor hemorrhage, ischemic stroke, respiratory failure, and sudden death
AEs leading to dose reduction or interruption, subjects [7]: 55.6%
Dose modification: AST increased [7]: 3.8%
Dose modification: ascites [7]: 1.1%
Dose modification: hepatic encephalopathy [7]: 0.6%
Dose modification: neutrophil count decreased [7]: 1.1%
Dose modification: pyrexia [7]: 1.1%
Dose modification: vomiting [7]: 1.3%
Dose modification: weight decreased [7]: 0.8%
Dose reduction/interruption: Abdominal pain [7]: 8 (1.7) n (%)
Dose reduction/interruption: Abdominal pain upper [7]: 2 (0.4) n (%)
Dose reduction/interruption: Alanine aminotransferase increased [7]: 9 (1.9) n (%)
Dose reduction/interruption: Anemia [7]: 8 (1.7) n (%)
Dose reduction/interruption: Ascites [7]: 5 (1.1) n (%)
Dose reduction/interruption: Aspartate aminotransferase increased [7]: 18 (3.8) n (%)
Dose reduction/interruption: Asthenia [7]: 9 (1.9) n (%)
Dose reduction/interruption: Blood and lymphatic system disorders [7]: 13 (2.7) n (%)
Dose reduction/interruption: Blood bilirubin increased [7]: 14 (2.9) n (%)
Dose reduction/interruption: Decreased appetite [7]: 15 (3.2) n (%)
Dose reduction/interruption: Dehydration [7]: 0 (0.0) n (%)
Dose reduction/interruption: Diarrhea [7]: 35 (7.4) n (%)
Dose reduction/interruption: Dyspnea [7]: 4 (0.8) n (%)
Dose reduction/interruption: Edema peripheral [7]: 3 (0.6) n (%)
Dose reduction/interruption: Esophageal varices hemorrhage [7]: 1 (0.2) n (%)
Dose reduction/interruption: Fatigue [7]: 17 (3.6) n (%)
Dose reduction/interruption: Gamma-glutamyltransferase increased [7]: 4 (0.8) n (%)
Dose reduction/interruption: Gastrointestinal disorders [7]: 72 (15.2) n (%)
Dose reduction/interruption: General disorders and administration site conditions [7]: 35 (7.4) n (%)
Dose reduction/interruption: Hepatic encephalopathy [7]: 3 (0.6) n (%)
Dose reduction/interruption: Hepatic function abnormal [7]: 9 (1.9) n (%)
Dose reduction/interruption: Hepatobiliary disorders [7]: 19 (4.0) n (%)
Dose reduction/interruption: Hypertension [7]: 18 (3.8) n (%)
Dose reduction/interruption: Hyponatremia [7]: 0 (0.0) n (%)
Dose reduction/interruption: Investigations [7]: 52 (10.9) n (%)
Dose reduction/interruption: Malaise [7]: 0 (0.0) n (%)
Dose reduction/interruption: Metabolism and nutrition disorders [7]: 19 (4.0) n (%)
Dose reduction/interruption: Musculoskeletal and connective tissue disorders [7]: 9 (1.9) n (%)
Dose reduction/interruption: Myalgia [7]: 0 (0.0) n (%)
Dose reduction/interruption: Nausea [7]: 9 (1.9) n (%)
Dose reduction/interruption: Nervous system disorders [7]: 14 (2.9) n (%)
Dose reduction/interruption: Neutropenia [7]: 0 (0.0) n (%)
Dose reduction/interruption: Neutrophil count decreased [7]: 5 (1.1) n (%)
Dose reduction/interruption: PPE syndrome [7]: 18.5%
Dose reduction/interruption: Palmar-plantar erythrodysesthesia syndrome [7]: 88 (18.5) n (%)
Dose reduction/interruption: Platelet count decreased [7]: 12 (2.5) n (%)
Dose reduction/interruption: Proteinuria [7]: 7 (1.5) n (%)
Dose reduction/interruption: Pyrexia [7]: 5 (1.1) n (%)
Dose reduction/interruption: Rash [7]: 10 (2.1) n (%)
Dose reduction/interruption: Rash maculo-papular [7]: 5 (1.1) n (%)
Dose reduction/interruption: Renal and urinary disorders [7]: 9 (1.9) n (%)
Dose reduction/interruption: Respiratory, thoracic and mediastinal disorders [7]: 12 (2.5) n (%)
Dose reduction/interruption: Stomatitis [7]: 2 (0.4) n (%)
Dose reduction/interruption: Thrombocytopenia [7]: 4 (0.8) n (%)
Dose reduction/interruption: Vascular disorders [7]: 19 (4.0) n (%)
Dose reduction/interruption: Vomiting [7]: 6 (1.3) n (%)
Dose reduction/interruption: Weight decreased [7]: 4 (0.8) n (%)
Dose reduction/interruption: White blood cell count decreased [7]: 4 (0.8) n (%)
Dose reduction/interruption: decreased appetite [7]: 3.2%
Dose reduction/interruption: diarrhea [7]: 7.4%
Dose reduction/interruption: fatigue [7]: 3.6%
Dose reduction/interruption: hypertension [7]: 3.8%
Dose reduction/interruption: proteinuria [7]: 1.5%
Primary reason for discontinuation of treatment: Adverse event [7]: 43 (9.0) n (%)
Subjects with Any TEAEs [7]: 472 (99.4) n (%)
Subjects with any TEAEs leading to Dose Reduction or Interruption [7]: 264 (55.6) n (%)
TEAE: Abdominal pain [7]: 87 (18.3) n (%)
TEAE: Abdominal pain upper [7]: 40 (8.4) n (%)
TEAE: Alanine aminotransferase increased [7]: 52 (10.9) n (%)
TEAE: Alopecia [7]: 119 (25.1) n (%)
TEAE: Ascites [7]: 44 (9.3) n (%)
TEAE: Aspartate aminotransferase increased [7]: 80 (16.8) n (%)
TEAE: Asthenia [7]: 48 (10.1) n (%)
TEAE: Back pain [7]: 31 (6.5) n (%)
TEAE: Blood bilirubin increased [7]: 63 (13.3) n (%)
TEAE: Constipation [7]: 52 (10.9) n (%)
TEAE: Edema peripheral [7]: 33 (6.9) n (%)
TEAE: Fatigue [7]: 119 (25.1) n (%)
TEAE: Nausea [7]: 68 (14.3) n (%)
TEAE: Palmar-plantar erythrodysesthesia [7]: 52.4%
TEAE: Palmar-plantar erythrodysesthesia syndrome [7]: 249 (52.4) n (%)
TEAE: Platelet count decreased [7]: 58 (12.2) n (%)
TEAE: Pyrexia [7]: 63 (13.3) n (%)
TEAE: Rash [7]: 76 (16.0) n (%)
TEAE: Stomatitis [7]: 56 (11.8) n (%)
TEAE: Vomiting [7]: 36 (7.6) n (%)
TEAE: Weight decreased [7]: 106 (22.3) n (%)
Treatment-emergent adverse events of grade 3 or higher, patients [7]: 66.5%
Treatment-emergent adverse events, patients [7]: 99.4%
WBC count deceased, adjusted by treatment duration [7]: 0.15 episodes per SY
dysphonia, adjusted by treatment duration [7]: 0.28 episodes per SY
hepatic encephalopathy, adjusted by treatment duration [7]: 0.04 episodes per SY
hypothyroidism, adjusted by treatment duration [7]: 0.03 episodes per SY
neutrophil count decreased, adjusted by treatment duration [7]: 0.06 episodes per SY
proteinuria, adjusted by treatment duration [7]: 0.31 episodes per SY
subjects without a TEAE [7]: 3 subjects
Median PFS ([3]; RECIST 1.1, independent review): 3.6 months
PFS Number of Events ([3]; RECIST 1.1, independent review): 320
PFS Number of Events (%) ([3]; RECIST 1.1, independent review): (67) %
Median OS ([3]; in vivo): 12.3 months
Number of deaths ([3]; in vivo): 350
Number of deaths (%) ([3]; in vivo): (74) %
Median PFS ([3]; mRECIST, independent review): 3.6 months
PFS Number of Events ([3]; mRECIST, independent review): 323
PFS Number of Events (%) ([3]; mRECIST, independent review): (68) %
time to clinically meaningful deterioration of quality of life [8]: deterioration was observed earlier
Primary reason for discontinuation of treatment: Disease Progression ([9]; Full Analysis Set): 347 (72.9) n (%)
Median overall survival ([9]; in vivo): 12.3 mo
Median progression-free survival ([9]; mRECIST): 3.7 mo
Median time to progression ([9]; mRECIST): 3.7 mo
Objective response rate ([9]; mRECIST): 9.2%
